According to US20080267935A1, “AraC in combination with a cytokine-secreting cell and methods of use thereof” (Cell Genesys, Inc., priority 2007, published 2008):
Like-named read-outs stand apart in the source and are kept apart here.

Key:
C1498-luc tumor cells = experiment: C1498-luc acute myeloid leukemia tumor model, survival and tumor burden; format: in vivo, C57BL/6 mice
Protocol: To assess the in vivo progression of systemic disease, 2.5×10^4 of C1498-luc cells were injected intravenously via tail vein into C57BL/6 mice, their syngeneic host, and the mice were examined every few days for the presence of luminescent signal via live imaging (FIG. 1A). […] A total photon count of 5×10^8 from an individual tumor bearing animal was used as the end point of life expectancy.
The efficacy of the combination of cytosine arabinoside (AraC) and GM-CSF secreting cells was evaluated by carrying out animal studies in the syngeneic C1498-luc tumor model. In this model, following challenge with C1498-luc tumor cells as described above, the mice were randomized into control and individual treatment groups, as detailed in the examples. For anti-tumor memory assessment, animals which had previously received AraC in combination with GM-CSF-secreting cells were rechallenged with a lethal dose of C1498-luc cells approximately 100 days after receiving the combination therapy. A typical study in the C1498-luc tumor model makes use of at least 6 and generally 10-15 mice per group in order to obtain statistically significant results. Statistical significance is evaluated using the Student's t-test.
Tumor Model. Female C57Bl/6 mice were challenged with C1498-luc cells via intra-tail-vein injections with 2.5×10^4 inocula. The mice were prepared for in vivo bioluminescence imaging 5 to 10 minutes post injection to confirm the initial trafficking of the tumor cells from tail vein to the lungs. Briefly, the mice were injected i.p. with 1.5 mg/g luciferin substrate (Xenogen Corp., Alameda, Calif.). Fifteen minutes later, the mice were anesthetized for in vivo bioluminescence imaging analysis. […] The animals were monitored by in vivo imaging every 5 to 7 days throughout the study to monitor the systemic progression of the tumor. Individual animals were euthanized when in vivo total photon counts exceeded 5×10^8 and/or when determined to be clinically paralyzed.
In Vivo Treatment. […]

[1] = design: species or system mice; settings: mouse, in vivo
Protocol: Hematologic and Phenotypic Analysis. Mice were injected intraperitoneally with AraC using the treatment regimen described below. Peripheral blood was collected by retro-orbital puncture into EDTA-coated capillary tubes on days 1, 2, 3, 4, 6, 8 and 11. Hematologic analysis was performed by IDEXX pre-clinical Research Services (West Sacramento, Calif.).
Prior to conducting the in vivo efficacy studies in the leukemia tumor models, the hematological toxicity of AraC was determined. The animals received three i.p. injections of 100 mg/kg AraC (volume of injection: 200 μl) in 10 hour-increments. This treatment regimen is equal to a total dose of 900 mg/m^2 and is within the total dose range of 700 to 1400 mg/m^2 used clinically in human patients. Neutropenia and lymphopenia are known to be the primary dose-limiting toxicity observed in patients, so AraC treated mice were monitored for absolute neutrophil and lymphocyte counts. The results are shown in FIG. 2A and FIG. 2B, respectively. After the three AraC administrations, peripheral blood was collected by retro-orbital puncture into EDTA-coated capillary tubes on days 1, 2, 3, 4, 6, 8 and 11 and analyzed for neutropenia. The absolute neutrophil count in the animals dropped to 45 neutrophils/μl, by day 4, rebounded to control level at 600 neutrophils/μl, by day 6 and remained at a steady level of around 600 neutrophils/μl, thereafter (FIG. 2A), which is similar to untreated control animals.

[2] = test system: Acute myeloid leukemias (AMLs); settings: cited from earlier work; for complete remissions: remission induction

SMILES: Nc1ccn([C@@H]2O[C@H](CO)[C@@H](O)[C@@H]2O)c(=O)n1 [AraC, 1-β-D-arabinofuranosylcytosine]
- mice surviving for longer than 150 days post-challenge (C1498-luc tumor cells; C1498-luc tumor bearing mice): 30%
- Number of tumor free animals 150 days post challenge (C1498-luc tumor cells; monotherapy): 0/10
- Median Survival Time (MST) (C1498-luc tumor cells; monotherapy, AraC 3 i.p. injections of 100 mg/kg one day post challenge, or 1×10^6 irradiated C1498.GM s.c. day 7): 61 days
- absolute neutrophil count [1]: 600 neutrophils/μl
- drop of lymphocyte counts [1]: greater than 40%
- absolute neutrophil count ([1]; ip, 100 mg/kg): 45 neutrophils/μl
- recovery of lymphocyte counts ([1]; ip, 100 mg/kg): rebounded by day 6
- dose-limiting toxicities ([2]; patients): severe neutropenia and lymphopenia
- complete remissions ([2]; patients older than 60): −50%
- complete remissions ([2]; younger adults): ~75%
